≈ marks a conversion by molar mass, not a printed value. Like-named read-outs stand apart in the source and are kept apart here.
How the values were obtained:
S. aureus ATCC 6538 = experiment: MIC microdilution; assay type: cell-based; conditions: Staphylococcus aureus
[1] = test system: S. epidermidis ATCC 12228; experiment: MIC microdilution; assay type: cell-based; conditions: Staphylococcus epidermidis
MRSA 462/11 = experiment: MIC microdilution, hospital MRSA; assay type: cell-based; conditions: Staphylococcus aureus
MRSA 522/12 = experiment: MIC microdilution, hospital MRSA; assay type: cell-based; conditions: Staphylococcus aureus
MRSA 586/12 = experiment: MIC microdilution, hospital MRSA; assay type: cell-based; conditions: Staphylococcus aureus
MRSE 488/11 = experiment: MIC microdilution, hospital MRSE; assay type: cell-based; conditions: Staphylococcus epidermidis
[2] = test system: M. tuberculosis standard H37Rv strain; experiment: Tuberculostatic activity, test-tube dilution; assay type: cell-based; conditions: Mycobacterium tuberculosis, read-out: MIC M. tuberculosis Standard H37Rv Strain
[3] = test system: standard strains of Gram-positive bacteria; experiment: MIC microdilution, standard Gram-positive strains overall (range given); assay type: cell-based; conditions: standard S. aureus and S. epidermidis strains
MRSA and MRSE = experiment: MIC microdilution, MRSA and MRSE overall (range given); assay type: cell-based; conditions: hospital MRSA and MRSE strains
[4] = test system: standard and "wild" strains of M. tuberculosis; experiment: Tuberculostatic activity, all M. tuberculosis strains (overall); assay type: cell-based; conditions: Mycobacterium tuberculosis, H37RV, read-out: MIC (over M. tuberculosis strains)
HL-60 = experiment: Antiproliferative MTT assay, HL-60; assay type: cell-based, human; conditions: for IC50: Homo sapiens, read-out: IC50 HL-60; for SI HL-60: SI = IC50 BALB/3T3 / IC50 HL-60
Summary of the method: (§1)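 Leukemia cells seeded at 10^4 per well and exposed 24 h later to four concentrations (100–0.1 µg/mL) for 72 h; HL-60/vinc cultured with doxorubicin. MTT added 4 h, formazan lysed 24 h, absorbance 570 nm; IC50 from triplicates, ≥3 independent experiments.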

HL-60/vinc = experiment: Antiproliferative MTT assay, HL-60/vinc; assay type: cell-based, human; conditions: for IC50: Homo sapiens, HL60/vinc, 72 h, read-out: IC50 HL-60/vinc; for IR HL-60/vinc: IR = IC50 HL-60/vinc / IC50 HL-60; for SI HL-60/vinc: SI = IC50 BALB/3T3 / IC50 HL-60/vinc
Summary of the method: as §1

[5] = test system: breast cancer stem cells (CSCs); parameters: method as in PMID 19682730; conditions: versus Taxol; cited from earlier work
[6] = ATCC6538, S. aureus ATCC 6538, 18 h, 35 °C, read-out: MIC
[7] = ATCC12228, S. epidermidis ATCC 12228, 18 h, 35 °C, read-out: MIC
[8] = hospital MRSA strain 462/11, read-out: MIC
[9] = hospital MRSA strain 522/12, read-out: MIC
[10] = hospital MRSA strain 586/12, read-out: MIC
[11] = hospital MRSE strain 488/11, read-out: MIC

SMILES	MIC (S. aureus ATCC 6538; [6])	MIC [1, 7]	MIC (MRSA 462/11; [8])	MIC (MRSA 522/12; [9])	MIC (MRSA 586/12; [10])	MIC (MRSE 488/11; [11])	MIC [2]	MIC (range over standard strains of Gram-positive bacteria) [3]	MIC (range over MRSA and MRSE) (MRSA and MRSE)	MIC [4]	SI HL-60 (HL-60)	IC50 (HL-60/vinc)	IR HL-60/vinc (HL-60/vinc)	SI HL-60/vinc (HL-60/vinc)	further results
CC[C@H](C(=O)NCc1ccc([N+](=O)[O-])cc1)C1CC[C@H](C)C([C@@H](C)[C@H](O)[C@H](C)C(=O)[C@H](CC)C2O[C@]3(C=C[C@@H](O)C4(CC[C@@](C)(C5CC[C@](O)(CC)[C@H](C)O5)O4)O3)[C@H](C)C[C@@H]2C)O1 (stereo partly drawn) [NO2-p]	128 µg/mL (≈ 145 µM)	128 µg/mL (≈ 145 µM)	128 µg/mL (≈ 145 µM)	128 µg/mL (≈ 145 µM)	256 µg/mL (≈ 289 µM)	256 µg/mL (≈ 289 µM)	50 µg/mL (≈ 56.5 µM)	128 µg/mL	128 to 256 µg/mL	50 µg/mL (≈ 56.5 µM)					
CC[C@@H](C(=O)[C@@H](C)[C@@H](O)[C@H](C)[C@@H]1O[C@@H]([C@@H](CC)C(=O)O)CC[C@@H]1C)[C@H]1O[C@]2(C=C[C@@H](O)[C@]3(CC[C@@](C)([C@H]4CC[C@](O)(CC)[C@H](C)O4)O3)O2)[C@H](C)C[C@@H]1C [SAL, Salinomycin]							25 µg/mL (≈ 33.3 µM)			25 to 50 µg/mL (≈ 33.3 to 66.6 µM)	39.45	2330 ± 120 nM	7.06	5.59	IC50 (HL-60; HL-60, 72 h): 330 ± 120 nM; MIC (S. aureus ATCC 6538; ATCC6538, 18 h): 2 µg/mL (≈ 2.66 µM); MIC ([1]; ATCC12228, 18 h): 2 µg/mL (≈ 2.66 µM); MIC (MRSA 462/11; MRSA): 16 µg/mL (≈ 21.3 µM); MIC (MRSA 522/12; MRSA): 16 µg/mL (≈ 21.3 µM); MIC (MRSA 586/12; MRSA): 16 µg/mL (≈ 21.3 µM); MIC (MRSE 488/11; MRSE): 16 µg/mL (≈ 21.3 µM); fold more effective than Taxol [5]: ~100 fold
CC[C@H](C(=O)NCc1ccc(F)cc1)C1CC[C@H](C)C([C@@H](C)[C@H](O)[C@H](C)C(=O)[C@H](CC)C2O[C@]3(C=C[C@@H](O)C4(CC[C@@](C)(C5CC[C@](O)(CC)[C@H](C)O5)O4)O3)[C@H](C)C[C@@H]2C)O1 (stereo partly drawn) [F-p]	16 µg/mL (≈ 18.6 µM)	16 µg/mL (≈ 18.6 µM)	32 µg/mL (≈ 37.3 µM)	32 µg/mL (≈ 37.3 µM)	64 µg/mL (≈ 74.6 µM)	128 µg/mL (≈ 149 µM)	50 µg/mL (≈ 58.3 µM)	16 to 32 µg/mL	16 to 128 µg/mL	50 µg/mL (≈ 58.3 µM)	2.40	11800 ± 2560 nM	3.28	0.73	IC50 (HL-60; HL-60, 72 h, MTT, mean ± SD, NA: not active in concentrations used (up to 100 µg/mL)): 3600 ± 690 nM
